Test system: ciliary body
Experiment: Lectin labeling of vascular endothelial cells and TUNEL staining after PDT in C57BL/6 normal mice
Assay type: in vivo, mouse
Conditions: 4.0 mg/kg, 180 degrees; 1 day after PDT
Protocol: Lectin labeling of vascular endothelial cells and TUNEL staining (to examine apoptotic cells) was performed 1 day after PDT in C57BL16 normal mice (n=2). In DBA/2J mice, only TUNEL staining was performed. PDT was performed to cover 180 degrees of the ciliary body at a dose of 4.0 mg/kg (C57BL/6) and 1.0 mg/kg (DBA/2J) verteporfin to compare the degree of staining between irradiated area and non-irradiated area. Non-operated fellow eyes (n=2) were used as controls. After sufficient anesthesia, the animals were perfused with 8 mL phosphate buffered saline (PBS) administered via a catheter in the left ventricle. After PBS perfusion, fluorescein-isothiocyanate (FITC)-coupled Concanavalin A lectin (20 μg/mL in PBS, pH 7.4, 5 mg/kg BW)(Vector Labs, Burlingame, Calif.) was then perfused to stain vascular endothelial cells. Four percent paraformaldehyde in 0.1 PBS (pH 7.4) was perfused following PBS perfusion to remove residual unbound lectin. Enucleated eyes were fixed in 4% paraformaldehyde in 0.1 PBS overnight and were immersed in graded sucrose in 0.1 PBS. The samples were embedded in optimal cutting temperature (OCT) compound (Tissue-Tek, Tokyo, Japan), and sectioned vertically at 10-μm. TUNEL staining was performed according to the manufacturer's protocol (Fluorescein In Situ Apoptosis Detection Kit; CHEMICON International, Temecula, Calif.) to detect retinal cell death induced by PDT. […]

Substance: verteporfin
- TUNEL positive (apoptotic) cells: some TUNEL positive cells in the ciliary body and retina of the PDT treated eyes
- lectin staining of ciliary body vessels on the treated side: showed little staining with lectin

Reference: patent US10272261B2, “Methods and compositions for treating ocular glaucoma” (Massachusetts Eye and Ear Infirmary, priority 2004, dated 2019)
